This is an account of results in PMC12775434, “Ultra-large virtual screening unveils potent agonists of the neuromodulatory orphan receptor GPR139” (Nature Communications, 2025).

Values after ≈ are worked out from the molar mass of the structure shown.

Series [1] is described as follows: Metabolic stability in the presence of mouse liver microsomes. The class given is in vitro ADME. The note with it: pH 7.4, read-out: intrinsic clearance, CLint. As to the method:
Metabolic stability was determined in 0.5 mg/ml mouse liver microsomes at a compound concentration of 1 μM in 100 mM KPO4 buffer, pH 7.4, in a total incubation volume of 500 μl. The reaction was initiated by addition of 1 mM NADPH. At various incubation times, i.e., at 0, 5, 10, 20, 40, and 60 min, a sample was withdrawn from the incubation, and the reaction was terminated by addition of cold acetonitrile with warfarin as an internal standard. The amount of parent compound remaining was analyzed by LC-MS/MS[70].

The nature of the next series: Kinetic solubility. The note with it: aqueous buffer, kinetic from dmso stock; 100 mM potassium phosphate buffer, 37 °C. The class given is physicochemical. How it is done:
Test compound was added to 100 mM potassium phosphate buffer and incubated at 37 °C for at least 20 h in a heater-shaker. After incubation, the samples were centrifuged at 3000 × g at 37 °C for 30 min to pellet insoluble material and an aliquot of the supernatant was taken for analysis. After dilution of the sample, the concentration of dissolved compound was quantified by liquid chromatography coupled to triple quadrupole mass spectrometry (LC-MS/MS).

The target of the next series is T1, GPR139 (Homo sapiens, UniProt Q6DWJ6).
T1 sequence (Q6DWJ6 1-353): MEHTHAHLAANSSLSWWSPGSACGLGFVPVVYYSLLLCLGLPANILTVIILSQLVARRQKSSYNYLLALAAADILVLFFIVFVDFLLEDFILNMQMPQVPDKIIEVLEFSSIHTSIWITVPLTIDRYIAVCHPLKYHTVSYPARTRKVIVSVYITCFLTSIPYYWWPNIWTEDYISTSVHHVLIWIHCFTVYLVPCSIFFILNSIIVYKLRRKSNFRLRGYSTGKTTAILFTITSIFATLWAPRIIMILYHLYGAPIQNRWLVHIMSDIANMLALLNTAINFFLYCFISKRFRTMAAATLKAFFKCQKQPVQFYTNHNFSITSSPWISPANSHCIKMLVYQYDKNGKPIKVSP
The series can be described thus: Signaling pathway panel at GPR139 (Gi2, Gi3, GoA, Gq, G12, Ca2+, arrestin-3), HEK293A. In kind it is cell-based. On the set-up: expressed in transfected cells; host or cells: HEK293A (transient, Lipofectamine 2000). The note with it: for fold more potent than the R-enantiomer: across individual signaling pathways. As to the method: We evaluated the signaling pathways activated by the potent agonist 1.1 and JNJ-63533054 compounds through GPR139. […] As all our screens of analogs were performed with racemic mixtures, we synthesized compound 1.1 as pure S- and R-enantiomer (1.1(S) and 1.1(R), respectively) along with JNJ-63533054 (JNJ(S)) and its R-enantiomer (JNJ(R)). Detailed synthetic procedures are described in the Supplementary Methods. We then characterized these four compounds in assays measuring the activation of Gi2, Gi3, GoA, Gq, and G12 proteins, intracellular calcium mobilization, and arrestin-3 recruitment. G protein activation was measured using a BRET-based Gα-specific G protein dissociation assay[57] and arrestin-3 recruitment was measured with an enhanced bystander BRET assay[58] (Fig. 5a).
HEK293A cells were reverse-transfected with human GPR139 for Ca^2+ mobilization experiments with transiently expressed GPR139. The construct has been generated and described previously by Nøhr et al.. DNA and Lipofectamine 2000 Transfection Reagent (ThermoFisher #11668019) were separately diluted in Opti-MEM I Reduced Serum Medium (ThermoFisher #31985070). 10 ng GPR139 DNA and 250 nL Lipofectamine were used for each well. The dilutions were incubated at room temperature for 5 min. Then, DNA and Lipofectamine dilutions were combined in 1:1 volumetric ratio and incubated at room temperature for 20 min to obtain the transfection solutions. 10 µL transfection solution and 20,000 cells in 100 µL growth medium were distributed in each well of black clear bottom tissue culture treated 96-well plates that were previously coated with poly-D-lysine (Sigma-Aldrich #P0899). Cells were grown for approximately 48 h. A calcium mobilization assay was performed as described.
The G protein dissociation assay developed by the lab of Kirill A. Martemyanov was used to measure the coupling of multiple G proteins by GPR139[57]. The assay was performed as described previously with minor modifications. […] Simultaneous dual emission was measured at 535 nm and 475 nm on LUMIstar Omega Microplate Reader (BMG Labtech) at room temperature. […]

On the set-up of series [2]: method as in PMID 26349500. The note with it: first hour after treatment; cited from earlier work.

For `Cc1cscc1-c1nc(CC(=O)N[C@@H](C)c2ccccc2)no1` [1.1(S)], in series [1], the microsomal CLint at 1 μM came to 1370 µL/min/mg. In “Kinetic solubility”, this compound yielded a solubility (kinetic) of 13 µM (≈ 4.26 µg/mL). The “fold more potent than the R-enantiomer” value on GPR139 is reported as 13- to 63 fold. Moreover, the EC50 on GPR139 (range over pathways, read-out: EC50 for stimulating the individual signaling pathways at GPR139) was 13 to 200 nM.

Take `Cc1nocc1-c1nc(CC(=O)NC(C)c2ccccc2)no1` (centres unmarked) [Compound 1.5, CC(C1=CC=CC=C1)NC(CC2=NOC(C3=CON=C3C)=N2)=O]: in series [1], the microsomal CLint at 1 μM came out at 46 µL/min/mg. In the series “Kinetic solubility”, this compound yielded a solubility (kinetic) of 24 µM (≈ 7.5 µg/mL).

Regarding `CC(NC(=O)CNC(=O)c1cccc(Cl)c1)c1ccccc1` (centres unmarked) [JNJ-63533054, reference compound], the locomotor activity result in series [2] was “reduction in locomotor activity”. Further, at GPR139, the “fold more potent than the R-enantiomer” value is listed as 40- to 158 fold.
